According to patent publication US10000765B2, “Gene encoding cytochrome P450, and use thereof” (NATIONAL INSTITUTE OF AGROBIOLOGICAL SCIENCES, priority 2011, dated 2018):

Assays:
[1] = system: Rice (Nipponbare) calluses transformed with pCAMBIA1302-sGFP; test: Redifferentiation and rooting test, control rice callus transformed with pCAMBIA1302-sGFP; type: cell-based, Oryza sativa
Experimental: After selective culturing, the callus was transplanted onto a rice redifferentiation medium RE-III (containing 50 ppm hygromycin or 0.25 μM bispyribac sodium), cultured at 27 degree C. under 16L/8D conditions, and led to redifferentiate. The callus was plated after 2 weeks. At additional about 2 to 3 weeks, a redifferentiated, transformed rice (T0) was obtained. Once a differentiated shoot and/or root had appeared, the rice was transplanted onto a hormone-free (HF) medium (containing 50 ppm hygromycin or 0.25 μM bispyribac sodium).
According to Example 5, an HptII::35Spro::Kasalath CYP72A31::Tnos vector plasmid (pCAMBIA1390-KasCYP72A31, a kasCYP72A31 overexpression construct) or, as controls, an HptII::35Spro::sGFP::Tnos vector plasmid (pCAMBIA1302-sGFP, an sGFP overexpression construct) or an OsALS (W548L/S627I)::OsAct-1pro::sGFP::Tnos vector plasmid (pSTARA-sGFP, a BS-resistant construct) was introduced into a rice variety (a cultivar: Nipponbare) by using an Agrobacterium method. According to a schedule designated in FIG. 12A), transformed calluses were selected with 50 ppm hygromycin. […] Of all the calluses, 43 calluses were transplanted onto a redifferentiation medium containing 0.25 μM BS.
Rice (Nipponbare) calluses transformed with a pCAMBIA1390-KasCYP72A31 construct in Example 8 were obtained by 50 ppm hygromycin selection. […]

[2] = system: Arabidopsis thaliana K31-4-2 and K31-6-5; test: Growth test in BS-containing medium, Arabidopsis transformed with Kasalath-derived CYP72A31; type: in vivo; conditions: day 10 from onset of cultivation, compared to NT
Source text: In this Example, Agrobacterium as prepared in Example 4 was used to introduce HptII::35Spro::Kasalath CYP72A31::Tnos vector plasmid (pCAMBIA1390-KasCYP72A31), HptII::35Spro::Kasalath CYP72A32::Tnos vector plasmid (pCAMBIA1390-KasCYP72A32), or HptII::35Spro::Kasalath CYP72A33::Tnos vector plasmid (pCAMBIA1390-KasCYP72A33) into Arabidopsis thaliana (ecotype: Col-0) by using a floral-dip method. The floral-dip method followed a standard method. […] K31-4-2 and K31-6-5 were selected as fixed lines derived from pCAMBIA1390-KasCYP72A31; K32-1-1, K32-3-1, and K32-5-1 were selected as fixed lines derived from pCAMBIA1390-KasCYP72A32; and K33-1-3 and K33-2-4 were selected as fixed lines derived from pCAMBIA1390-KasCYP72A33. Their seeds were seeded in a medium containing each concentration of BS, and cultivated for 10 days. FIGS. 16A and 16B illustrate the results.
Next, 15 seeds for each of non-transformed Arabidopsis thaliana (NT, which is denoted by “Col-0” in FIGS. 17A-17C) and transformed plant bodies (K31-4-2 which is denoted by “K31oe-4-2” in FIGS. 17A-17C and K31-6-5 which is denoted by “K31oe-6-5” in FIGS. 17A-17C) were cultivated on a medium containing each concentration of BS. […]

[3] = system: non-transformed Arabidopsis thaliana (NT); test: Drug sensitivity test on drug-containing MS medium, non-transformed Arabidopsis thaliana; type: in vivo
Experimental: A bag of mixed salts for Murashige-Skoog (MS) medium (manufactured by Wako Pure Chemical Industries, Ltd.) 20 g of sucrose, 3 mg of thiamin hydrochloride, 5 mg of nicotinic acid, and 0.5 mg of pyridoxine hydrochloride were dissolved in distilled water, and filled up to 1 L with distilled water. After pH adjustment to 5.8 to 6.3 with 1 M KOH, 3 g of Gelrite was added to the solution, and dissolved using a microwave. After that, the mixture was autoclaved to prepare a sterile MS medium. A test drug was added to this sterile MS medium so as to make a final concentration of 1.3, 4.1, 12, 37, 110, or 330 nM. Arabidopsis thaliana from a sterilized seed was seeded in the drug-containing MS medium, and cultivated at 22° C. for 12 to 14 days in a continuous light period.
Note that the drugs used in this Example were bispyribac-sodium, pyrithiobac-sodium, pyriminobac, bensulfuron-methyl, penoxsulam, pyrazosulfuron-ethyl, amidosulfuron, imazosulfuron, nicosulfuron, and propyrisulfuron.

SMILES: COc1cc(OC)nc(Oc2cccc(Oc3nc(OC)cc(OC)n3)c2C(=O)O)n1 [BS, bispyribac sodium]
- Rooting and survival of plant bodies ([1]; hormone-free medium containing 1 μM BS): killed the plant bodies
- Redifferentiation ([1]; redifferentiation medium containing 0.25 μM BS): found not to include those redifferentiated
- BS sensitivity (germinated seeds, emerging of true leaves, fresh weight of above-ground part) [2]: significantly lower BS sensitivity compared to NT
- Rate of emerging of true leaf (%) ([3]; drug 1.3 nM, day 12 after seeding): 44%
- Rate of emerging of true leaf (%) ([3]; drug 1.3 nM, day 14 after seeding): 100%
- Rate of emerging of true leaf (%) ([3]; drug 4.1 nM, day 12 after seeding): 67%
- Rate of emerging of true leaf (%) ([3]; drug 4.1 nM, day 14 after seeding): 100%
- Rate of emerging of true leaf (%) ([3]; drug 12 nM, day 12 after seeding): 56%
- Rate of emerging of true leaf (%) ([3]; drug 12 nM, day 14 after seeding): 50%
- Rate of emerging of true leaf (%) ([3]; drug 37 nM, day 12 after seeding): 0%
- Rate of emerging of true leaf (%) ([3]; drug 37 nM, day 14 after seeding): 0%
- Rate of emerging of true leaf (%) ([3]; drug 110 nM, day 12 after seeding): 0%
- Rate of emerging of true leaf (%) ([3]; drug 110 nM, day 14 after seeding): 0%
- Rate of emerging of true leaf (%) ([3]; drug 330 nM, day 12 after seeding): 0%
- Rate of emerging of true leaf (%) ([3]; drug 330 nM, day 14 after seeding): 0%
